The results in this text go back to patent US20080200454A1, “CARBON-LINKED TETRAHYDRO-PYRAZOLO-PYRIDINE MODULATORS OF CATHEPSIN S” (priority 2007, published 2008).

Usually IC50 stands for the concentration at which inhibition is half-maximal.

Recombinant human cathepsin S (CatS), sequence (P25774 115-331): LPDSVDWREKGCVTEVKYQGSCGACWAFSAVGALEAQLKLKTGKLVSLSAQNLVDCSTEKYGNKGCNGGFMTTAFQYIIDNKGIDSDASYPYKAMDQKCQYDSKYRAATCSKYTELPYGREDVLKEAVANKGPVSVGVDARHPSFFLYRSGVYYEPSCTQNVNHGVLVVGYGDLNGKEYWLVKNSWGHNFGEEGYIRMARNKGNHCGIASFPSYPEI

One experiment addresses Recombinant human cathepsin S (CatS) (Homo sapiens, UniProt P25774). Kind of experiment: Recombinant human cathepsin S (CatS) inhibition assay, fluorogenic substrate Z-Valine-Valine-Arginine-AMC.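 Also: Baculovirus-expressed CatS in pH 5.0 sodium acetate buffer with DTT and NaCl, fluorescence read each minute over 20 min, inhibition derived from rate slope.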
Conditions: not given
Turning to `COC(=O)[C@@H]1Cc2ccc(C#Cc3cc(-c4nn(CCCN5CCOCC5)c5c4CN(S(C)(=O)=O)CC5)ccc3Cl)cc2CN1C(=O)OC(C)(C)C` [Example 190, 2-(1,1-Dimethylethyl) 3-methyl (3S)-7-({2-chloro-5-[5-(methylsulfonyl)-1-(3-morpholin-4-ylpropyl)-4,5,6,7-tetrahydro-1H-pyrazolo[4,3-c]pyridin-3-yl]phenyl}ethynyl)-3,4-dihydroisoquinoline-2,3(1H)-dicarboxylate], the IC50 came out at 1110 nM.
The same measure, in the same setting: then `CNCc1ccc(C#Cc2cc(-c3nn(CCCN4CCOCC4)c4c3CN(S(C)(=O)=O)CC4)ccc2Cl)cc1` [Example 315, 1-[4-({2-Chloro-5-[5-(methylsulfonyl)-1-(3-morpholin-4-ylpropyl)-4,5,6,7-tetrahydro-1H-pyrazolo[4,3-c]pyridin-3-yl]phenyl}ethynyl)phenyl]-N-methylmethanamine], with 1360 nM; and `NC(=O)C(=O)N1CCc2c(c(-c3ccc(Cl)c(C#Cc4ccc(Cl)c(C(=O)NCC5CCCNC5)c4)c3)nn2CCCN2CCSCC2)C1` (stereo not shown) [Example 579, 5-[(5-{5-[Amino(oxo)acetyl]-1-(3-thiomorpholin-4-ylpropyl)-4,5,6,7-tetrahydro-1H-pyrazolo[4,3-c]pyridin-3-yl}-2-chlorophenyl)ethynyl]-2-chloro-N-(piperidin-3-ylmethyl)benzamide], with 20 nM; and `CS(=O)(=O)N1CCc2c(c(-c3ccc(Cl)c(C#Cc4ccc(Cl)c(C(=O)NCCN5CCOCC5)c4)c3)nn2CCCN2CCCCC2)C1` [Example 593, 2-Chloro-5-({2-chloro-5-[5-(methylsulfonyl)-1-(3-piperidin-1-ylpropyl)-4,5,6,7-tetrahydro-1H-pyrazolo[4,3-c]pyridin-3-yl]phenyl}ethynyl)-N-(2-morpholin-4-ylethyl)benzamide], with 60 nM.
On the same count and under the same terms, then `COC(=O)C1c2ccc(C#Cc3cc(-c4nn(CCCN5CCOCC5)c5c4CN(S(C)(=O)=O)CC5)ccc3Cl)cc2CCN1C(=O)OC(C)(C)C` (stereo not shown) [Example 207, 2-(1,1-Dimethylethyl) 1-methyl 6-({2-chloro-5-[5-(methylsulfonyl)-1-(3-morpholin-4-ylpropyl)-4,5,6,7-tetrahydro-1H-pyrazolo[4,3-c]pyridin-3-yl]phenyl}ethynyl)-3,4-dihydroisoquinoline-1,2(1H)-dicarboxylate], with 2860 nM; and `NC(=O)N1CCc2c(c(-c3ccc(Cl)c(C#Cc4ccc(C(=O)NC[C@@H]5CCCN5)cc4)c3)nn2CCCN2CCSCC2)C1` [Example 609, 3-{4-Chloro-3-[(4-{[(2S)-pyrrolidin-2-ylmethyl]carbamoyl}phenyl)ethynyl]phenyl}-1-(3-thiomorpholin-4-ylpropyl)-1,4,6,7-tetrahydro-5H-pyrazolo[4,3-c]pyridine-5-carboxamide], with 70 nM.
The same measure, in the same setting: the same measure for `CC(C)(O)CNCc1cc(C#Cc2cc(-c3nn(CCCN4CCSCC4)c4c3CN(C(=O)C(N)=O)CC4)ccc2Cl)ccc1Cl` [Example 562, 2-[3-{4-Chloro-3-[(4-chloro-3-{[(2-hydroxy-2-methylpropyl)amino]methyl}phenyl)ethynyl]phenyl}-1-(3-thiomorpholin-4-ylpropyl)-1,4,6,7-tetrahydro-5H-pyrazolo[4,3-c]pyridin-5-yl]-2-oxoacetamide]: 30 nM; for `CS(=O)(=O)N1CCc2c(c(-c3ccc(Cl)c(C#Cc4ccc(CNCc5ccc(Cl)cc5)cc4)c3)nn2CCCN2CCOCC2C(=O)O)C1` (stereo not shown) [Example 437, 4-{3-[3-(4-Chloro-3-{[4-({[(4-chlorophenyl)methyl]amino}methyl)phenyl]ethynyl}phenyl)-5-(methylsulfonyl)-4,5,6,7-tetrahydro-1H-pyrazolo[4,3-c]pyridin-1-yl]propyl}morpholine-3-carboxylic acid]: 570 nM.

The same experiment, now with this note: CatS IC50.
Consider `CC(C)(C)C1CCN(CCCn2nc(-c3ccc(Cl)c(C#Cc4ccc5c(c4)CNCC5)c3)c3c2CCN(S(C)(=O)=O)C3)CC1` [Example 378, 7-({2-Chloro-5-[1-{3-[4-(1,1-dimethylethyl)piperidin-1-yl]propyl}-5-(methylsulfonyl)-4,5,6,7-tetrahydro-1H-pyrazolo[4,3-c]pyridin-3-yl]phenyl}ethynyl)-1,2,3,4-tetrahydroisoquinoline], for which the IC50 is 80 nM.
On the same count and under the same terms, then `NC(=O)N1CCc2c(c(-c3ccc(Cl)c(C#Cc4ccc(Cl)c(CN5CCOCC5)c4)c3)nn2CCCN2CCSCC2)C1` [Example 606, 3-(4-Chloro-3-{[4-chloro-3-(morpholin-4-ylmethyl)phenyl]ethynyl}phenyl)-1-(3-thiomorpholin-4-ylpropyl)-1,4,6,7-tetrahydro-5H-pyrazolo[4,3-c]pyridine-5-carboxamide], with 40 nM.
On to `CS(=O)(=O)N1CCc2c(c(-c3ccc(Cl)c(C#Cc4ccc(CNC5CC5)cc4)c3)nn2CCCN2CCOCC2)C1` [Example 323, N-{[4-({2-Chloro-5-[5-(methylsulfonyl)-1-(3-morpholin-4-ylpropyl)-4,5,6,7-tetrahydro-1H-pyrazolo[4,3-c]pyridin-3-yl]phenyl}ethynyl)phenyl]methyl}cyclopropanamine], for which the IC50 was 750 nM.
Same read-out and setting: then `NC(=O)C(=O)N1CCc2c(c(-c3ccc(Cl)c(C#Cc4ccc(Cl)c(CNC5CCCC5)c4)c3)nn2CCCN2CCCCC2)C1` [Example 595, 2-{3-[4-Chloro-3-({4-chloro-3-[(cyclopentylamino)methyl]phenyl}ethynyl)phenyl]-1-(3-piperidin-1-ylpropyl)-1,4,6,7-tetrahydro-5H-pyrazolo[4,3-c]pyridin-5-yl}-2-oxoacetamide], with 10 nM; and `CC(=O)NC1CCN(CCCn2nc(-c3ccc(Cl)c(C#Cc4ccc(CNCc5ccc(Cl)cc5)cc4)c3)c3c2CCN(C(N)=O)C3)CC1` [Example 459, 1-{3-[4-(Acetylamino)piperidin-1-yl]propyl}-3-(4-chloro-3-{[4-({[(4-chlorophenyl)methyl]amino}methyl)phenyl]ethynyl}phenyl)-1,4,6,7-tetrahydro-5H-pyrazolo[4,3-c]pyridine-5-carboxamide], with 20 nM.
In the case of `CSc1ccc(CNCc2ccc(C#Cc3cc(-c4nn(CCCN5CCSCC5)c5c4CN(C(N)=O)CC5)ccc3Cl)cc2)cc1` [Example 550, 3-[4-Chloro-3-({4-[({[4-(methylsulfanyl)phenyl]methyl}amino)methyl]phenyl}ethynyl)phenyl]-1-(3-thiomorpholin-4-ylpropyl)-1,4,6,7-tetrahydro-5H-pyrazolo[4,3-c]pyridine-5-carboxamide], the IC50 came to 100 nM.
The same measure, in the same setting: then `C[C@H]1COCCN1CCCn1nc(-c2ccc(Cl)c(C#Cc3ccc(CNCc4ccc(Cl)cc4)cc3)c2)c2c1CCN(C(N)=O)C2` [Example 401, 3-(4-Chloro-3-{[4-({[(4-chlorophenyl)methyl]amino}methyl)phenyl]ethynyl}phenyl)-1-{3-[(3S)-3-methylmorpholin-4-yl]propyl}-1,4,6,7-tetrahydro-5H-pyrazolo[4,3-c]pyridine-5-carboxamide], with 110 nM; and `CS(=O)(=O)N1CCc2c(c(-c3ccc(Cl)c(C#Cc4ccc(CN5CCCCC5)cc4)c3)nn2CCCN2CCOCC2)C1` [Example 79, 3-[4-Chloro-3-(4-piperidin-1-ylmethyl-phenylethynyl)-phenyl]-5-methanesulfonyl-1-(3-morpholin-4-yl-propyl)-4,5,6,7-tetrahydro-1H-pyrazolo[4,3-c]pyridine], with 1500 nM; and `CS(=O)(=O)N1CCc2c(c(-c3ccc(Cl)c(C#Cc4ccc(CN[C@H]5CCCc6ccccc65)cc4)c3)nn2CCCN2CCN(c3ccccn3)CC2)C1` [Example 216, (1S)—N-({4-[(2-Chloro-5-{5-(methylsulfonyl)-1-[3-(4-pyridin-2-ylpiperazin-1-yl)propyl]-4,5,6,7-tetrahydro-1H-pyrazolo[4,3-c]pyridin-3-yl}phenyl)ethynyl]phenyl}methyl)-1,2,3,4-tetrahydronaphthalen-1-amine], with 70 nM.
The same measure, in the same setting: the same measure for `CC(=O)N1CCN(CCCn2nc(-c3ccc(Cl)c(C#Cc4ccc(CNCc5ccc(Cl)cc5)cc4)c3)c3c2CCN(S(C)(=O)=O)C3)CC1` [Example 353, 1-{4-[(5-{1-[3-(4-Acetylpiperazin-1-yl)propyl]-5-(methylsulfonyl)-4,5,6,7-tetrahydro-1H-pyrazolo[4,3-c]pyridin-3-yl}-2-chlorophenyl)ethynyl]phenyl}-N-[(4-chlorophenyl)methyl]methanamine]: 150 nM; for `NC(=O)N1CCc2c(c(-c3ccc(Cl)c(C#Cc4ccc(CN5CCC(N6C[C@H](O)CC6=O)CC5)cc4)c3)nn2CCCN2CCSCC2)C1` [Example 549, 3-(4-Chloro-3-{[4-({4-[(4R)-4-hydroxy-2-oxopyrrolidin-1-yl]piperidin-1-yl}methyl)phenyl]ethynyl}phenyl)-1-(3-thiomorpholin-4-ylpropyl)-1,4,6,7-tetrahydro-5H-pyrazolo[4,3-c]pyridine-5-carboxamide]: 1010 nM; for `CS(=O)(=O)N1CCc2c(c(-c3ccc(Cl)c(C#Cc4ccccn4)c3)nn2C[C@@H](O)CN2CCC(C3CCNCC3)CC2)C1` [Example 473, (2S)-1-(4,4′-Bipiperidin-1-yl)-3-{3-[4-chloro-3-(pyridin-2-ylethynyl)phenyl]-5-(methylsulfonyl)-4,5,6,7-tetrahydro-1H-pyrazolo[4,3-c]pyridin-1-yl}propan-2-ol]: 120 nM.
Consider `CS(=O)(=O)N1CCc2c(c(-c3ccc(Cl)c(C#Cc4ccc(C(=O)NC[C@@H]5CCCN5)cc4)c3)nn2CCCN2CCCCC2)C1` [Example 611, 4-({2-Chloro-5-[5-(methylsulfonyl)-1-(3-piperidin-1-ylpropyl)-4,5,6,7-tetrahydro-1H-pyrazolo[4,3-c]pyridin-3-yl]phenyl}ethynyl)-N-[(2S)-pyrrolidin-2-ylmethyl]benzamide], for which the half-inhibitory concentration (IC50) is 100 nM.

The experiment is the same for the next values; noted with them: CatS IC50, Table 2; average of results obtained.
For `CS(=O)(=O)N1CCc2c(c(-c3ccc(Cl)c(C#Cc4ccsc4)c3)nn2CCCN2CCOCC2)C1` [Example 23, 3-(4-Chloro-3-thiophen-3-ylethynyl-phenyl)-5-methanesulfonyl-1-(3-morpholin-4-yl-propyl)-4,5,6,7-tetrahydro-1H-pyrazolo[4,3-c]pyridine], the IC50 is 1440 nM.
